Consider 16 compounds from patent US8957064B2, “Fused pyrimidines” (Bayer Intellectual Property GmbH, priority 2009, dated 2015).

The target of test [1] is His-tagged human recombinant kinase full-length Akt1 (Homo sapiens (Human), UniProt P31749). The test can be described thus: Akt1 kinase assay (Akt1 TR-FRET assay, Biological Assay 1.0). The conditions noted are these: 10 μM ATP, 1 μM biotinylated peptide substrate, 60 min at 22° C. The test is classed as biochemical. The text has this:
Biological Assay 1.0: Akt1 Kinase Assay
Akt1 inhibitory activity of compounds of the present invention may be quantified employing the Akt1 TR-FRET assay as described in the following paragraphs. His-tagged human recombinant kinase full-length Akt1 expressed in insect cells was purchased form Invitrogen (part number PV 3599). As substrate for the kinase reaction the biotinylated peptide biotin-Ahx-KKLNRTLSFAEPG (C-terminus in amide form) was used which can be purchased e.g. from the company Biosynthan GmbH (Berlin-Buch, Germany).
(§1) For the assay 50 nl of a 100 fold concentrated solution of the test compound in DMSO was pipetted into a black low volume 384 well microtiter plate (Greiner Bio-One, Frickenhausen, Germany), 2 μl of a solution of Akt1 in assay buffer [50 mM TRIS/HCl pH 7.5, 5 mM MgCl2, 1 mM dithiothreitol, 0.02% (v/v) Triton X-100 (Sigma)] were added and the mixture was incubated for 15 min at 22° C. to allow prebinding of the test compounds to the enzyme before the start of the kinase reaction. Then the kinase reaction was started by the addition of 3 μl of a solution of adenosine-tri-phosphate (ATP, 16.7 μM=>final conc. in the 5 μl assay volume is 10 μM) and substrate (1.67 μM=>final conc. in the 5 μl assay volume is 1 μM) in assay buffer and the resulting mixture was incubated for a reaction time of 60 min at 22° C. The concentration of Akt1 in the assay was adjusted depending of the activity of the enzyme lot and was chosen appropriate to have the assay in the linear range, typical enzyme concentrations were in the range of about 0.05 ng/μl (final conc. in the 5 μl assay volume).
(§2) The reaction was stopped by the addition of 5 μl of a solution of HTRF detection reagents (200 nM streptavidine-XL665 [Cisbio] and 1.5 nM anti-phosho-Serine antibody [Millipore, cat. #35-001] and 0.75 nM LANCE Eu-W 1024 labeled anti-mouse IgG antibody [Perkin Elmer]) in an aqueous EDTA-solution (100 mM EDTA, 0.1% (w/v) bovine serum albumin in 50 mM HEPES/NaOH pH 7.5).
(§3) The resulting mixture was incubated 1 h at 22° C. to allow the binding of the biotinylated phosphorylated peptide to the streptavidine-XL665 and the antibodies. Subsequently the amount of phosphorylated substrate was evaluated by measurement of the resonance energy transfer from the anti-mouse-IgG-Eu-Chelate to the streptavidine-XL665. Therefore, the fluorescence emissions at 620 nm and 665 nm after excitation at 350 nm was measured in a HTRF reader, e.g. a Rubystar (BMG Labtechnologies, Offenburg, Germany) or a Viewlux (Perkin-Elmer). The ratio of the emissions at 665 nm and at […] was taken as the measure for the amount of phosphorylated substrate. The data were normalised (enzyme reaction without inhibitor=0% inhibition, all other assay components but no enzyme=100% inhibition).

The target in test [2] is His-tagged human recombinant kinase full-length Akt2 activated by PDK1 (Homo sapiens (Human), UniProt P31751). The test can be described thus: Akt2 kinase assay (Akt2 TR-FRET assay, Biological Assay 2.0). The class given is biochemical. The conditions noted are these: 10 μM ATP, 1 μM biotinylated peptide substrate, 60 min at 22° C.
His-tagged human recombinant kinase full-length Akt2 activated by PDK1, sequence (P31751 whole entry): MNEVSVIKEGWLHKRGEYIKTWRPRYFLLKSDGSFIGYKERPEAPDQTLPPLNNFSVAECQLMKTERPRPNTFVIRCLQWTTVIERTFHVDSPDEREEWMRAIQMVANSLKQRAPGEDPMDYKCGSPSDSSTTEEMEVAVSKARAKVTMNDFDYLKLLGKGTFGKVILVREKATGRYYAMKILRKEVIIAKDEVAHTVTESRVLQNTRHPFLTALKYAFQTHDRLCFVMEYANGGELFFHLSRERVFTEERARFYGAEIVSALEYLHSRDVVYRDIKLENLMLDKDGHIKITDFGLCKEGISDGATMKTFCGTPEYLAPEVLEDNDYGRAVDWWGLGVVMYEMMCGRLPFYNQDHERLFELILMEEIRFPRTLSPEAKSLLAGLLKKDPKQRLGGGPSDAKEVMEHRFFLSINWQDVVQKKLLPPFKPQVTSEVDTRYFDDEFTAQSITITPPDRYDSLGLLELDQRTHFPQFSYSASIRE
From the text: Biological Assay 2.0: Akt2 Kinase Assay
Akt2 inhibitory activity of compounds of the present invention was quantified employing the Akt2 TR-FRET assay as described in the following paragraphs.
His-tagged human recombinant kinase full-length Akt2 expressed in insect cells and activated by PDK1 was purchased form Invitrogen (part number PV 3975). As substrate for the kinase reaction the biotinylated peptide biotin-Ahx-KKLNRTLSFAEPG (C-terminus in amide form) was used which can be purchased e.g. from the company Biosynthan GmbH (Berlin-Buch, Germany).
as §1, with “Akt2” for “Akt1”, “0.2” for “0.05”
as §2
as §3, with “TR-FRET” for “HTRF”

His-tagged human recombinant kinase full-length Akt1, sequence (P31749 whole entry): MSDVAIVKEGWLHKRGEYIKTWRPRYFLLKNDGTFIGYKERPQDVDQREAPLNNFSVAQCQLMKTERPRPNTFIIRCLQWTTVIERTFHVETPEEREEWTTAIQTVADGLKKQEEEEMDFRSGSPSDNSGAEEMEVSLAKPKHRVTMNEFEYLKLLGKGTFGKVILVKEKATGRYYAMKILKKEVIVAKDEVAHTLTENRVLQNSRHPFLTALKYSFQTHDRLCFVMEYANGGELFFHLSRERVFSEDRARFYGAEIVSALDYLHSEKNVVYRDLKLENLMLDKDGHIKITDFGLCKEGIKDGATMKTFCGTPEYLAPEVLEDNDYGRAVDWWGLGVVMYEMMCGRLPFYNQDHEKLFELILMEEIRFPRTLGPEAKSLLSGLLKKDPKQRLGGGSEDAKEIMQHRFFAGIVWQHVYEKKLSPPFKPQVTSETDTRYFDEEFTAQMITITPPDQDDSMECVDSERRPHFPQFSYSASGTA

For the compound `COc1nn2cc(-c3c(F)cccc3F)c(-c3ccc(CN4CC(c5n[nH]c(-c6ccccn6)n5)C4)cc3)nc2c1CO` [Example 63.0, (6-(2,6-difluorophenyl)-2-methoxy-5-{4-[3-[5-pyridine-2-yl-1H-[1,2,4]triazole-3-yl)-azetidine-1-ylmethyl]-phenyl}-pyrazolo[1,5-a]pyrimidin-3-yl)-methanol], the half-maximal inhibitory concentration (IC50) was found to be 14 nM in test [1] and 118 nM in test [2].

On to `Fc1ccc(-c2cn3ccnc3nc2-c2ccc(CN3CCC(c4n[nH]c(-c5cnccn5)n4)CC3)cc2)cc1` [Example 52.2, 6-(4-fluorophenyl)-7-{4-[4-(5-pyrazine-2-yl-1H-[1,2,4]triazole-3-yl]-piperidine-1-ylmethyl]-phenyl}-imidazo[1,2-a]pyrimidine], for which the half-maximal inhibitory concentration (IC50) in test [1] was 186 nM; in test [2], 1440 nM.

For `Fc1ccc(-c2cn3c(Cl)cnc3nc2-c2ccc(CN3CCC(c4n[nH]c(-c5ccccn5)n4)CC3)cc2)cc1` [Example 53.1, 3-chloro-6-(4-fluorophenyl)-7-{4-[4-(5-pyridine-2-yl-1H-[1,2,4]triazole-3-yl)-piperidine-1-ylmethyl]-phenyl}-imidazo[1,2-a]pyrimidine], the half-maximal inhibitory concentration (IC50) in test [1] amounted to 25 nM; in test [2], 33 nM.

With `Cc1nc2nc(-c3ccc(CN4CCC(c5nc6ccc(C(F)(F)F)cc6[nH]5)CC4)cc3)c(-c3ccccc3)cn2n1` [Example 21.0, 2-methyl-6-phenyl-5-{4-[4-(6-trifluoromethyl-1H-benzimidazol-2-yl)-piperidin-1-ylmethyl]-phenyl}-[1,2,4]-triazolo[1,5-a]pyrimidine], the concentration for half-maximal inhibition (IC50) worked out at 1450 nM in test [1] and 2500 nM in test [2].

Turning to `Cc1nc2nc(-c3ccc(CN4CCC(c5nc6ccc(F)cc6[nH]5)CC4)cc3)c(-c3ccccc3)cn2n1` [Example 13.0, 5-{4-[4-(6-fluoro-1H-benzoimidazol-2-yl)-piperidin-1-ylmethyl]-phenyl}-2-methyl-6-phenyl-[1,2,4]triazolo[1,5-a]pyrimidine], the values for the IC50 in test [1] and in test [2] were 112 nM and 228 nM, respectively.

For `Cc1cn2cc(-c3ccccc3)c(-c3ccc(CN4CCC(c5cnc6ccccc6n5)CC4)cc3)nc2n1` [Example 37.0, 2-{1-[4-(2-methyl-6-phenyl-imidazo[1,2-a]pyrimidin-7-yl)benzyl]-piperidine-4-yl}-quinoxaline], the figures for the IC50 in test [1] and in test [2] were 77 nM and 256 nM, respectively.

With `Cc1nc2nc(-c3ccc(CN4CCC(c5n[nH]c(-c6ccccn6)n5)CC4)cc3)c(-c3cc(F)ccc3F)cn2n1` [Example 76.0, 6-(2,5-difluorophenyl)-2-methyl-5-{4-[4-(5-pyridine-2-yl-1H-[1,2,4]triazole-3-yl)-piperidine-1-ylmethyl]-phenyl}-[1,2,4]triazolo[1,5-a]pyrimidine], the results for the concentration for half-maximal inhibition (IC50) in test [1] and in test [2] were 60 nM and 154 nM, respectively.

Consider `Cc1cccc(-c2nc(C3CN(Cc4ccc(-c5nc6nc(C)cn6cc5-c5ccccc5)cc4)C3)n[nH]2)n1` [Example 38.0, 2-methyl-7-(4-{3-[5-(6-methylpyridine-2-yl)-1H-[1,2,4]triazole-3-yl]-azetidine-1-ylmethyl}-phenyl)-6-phenyl-imidazo[1,2-a]pyrimidine], for which the IC50 in test [1] is 13 nM; in test [2], 16 nM.

As to `Cc1cccc(-c2nc(C3CN(Cc4ccc(-c5nc6nc(C)nn6cc5-c5ccc(F)cc5F)cc4)C3)n[nH]2)n1` [Example 35.0, 6-(2,4-difluorophenyl)-2-methyl-5-(4-{3-[5-(6-methyl-pyridine-2-yl)-1H-[1,2,4]triazole-3-yl]-azetidine-1-ylmethyl}-phenyl)-[1,2,4]triazolo[1,5-a]pyrimidine], the IC50 was 29 nM in test [1] and 42 nM in test [2].

Turning to `CSc1nc2nc(-c3ccc(CN4CCC(c5n[nH]c(-c6cnccn6)n5)CC4)cc3)c(-c3ccccc3)cn2n1` [Example 72.3, 2-methylsulfanyl-6-phenyl-5-{4-[4-(5-pyrazin-2-yl-1H-[1,2,4]triazol-3-yl)-piperidin-1-ylmethyl]-phenyl}-[1,2,4]triazolo[1,5-a]pyrimidine], the 50% inhibitory concentration (IC50) in test [1] came out at 26 nM; in test [2], 80 nM.

On to `Cc1cn2cc(-c3ccccc3)c(-c3ccc(CN4CC(c5n[nH]c(-c6ccccn6)n5)C4)cc3)nc2n1` [Example 56.0, 2-methyl-6-phenyl-7-{4-{3-[5-(pyridine-2-yl)-1H-[1,2,4]triazole-3-yl)-azetidine-1-ylmethyl]-phenyl}-imidazo[1,2-a]pyrimidine], for which the IC50 in test [1] was determined as 10 nM; in test [2], 47 nM.

Consider `CNc1c(-c2ccccc2)c(-c2ccc(CN3CC(c4n[nH]c(-c5ccccn5)n4)C3)cc2)nc2nc(C)cn12` [Example 60.0, methyl-(2-methyl-6-phenyl-7-{4-{3-[5-(pyridine-2-yl)-1H-[1,2,4]triazole-3-yl)-azetidine-1-ylmethyl]-phenyl}-imidazo[1,2-a]pyrimidin-5-yl)-amine], for which the concentration for half-maximal inhibition (IC50) in test [1] was found to be 16 nM; in test [2], 55 nM.

For `Cc1nc2nc(-c3ccc(CN4CCC(c5nc6cccnc6[nH]5)CC4)cc3)c(-c3ccccc3)cn2n1` [Example 23.0, 5-{4-[4-(3H-imidazo[4,5-b]pyridin-2-yl)-piperidin-1-ylmethyl]-phenyl}-2-methyl-6-phenyl-[1,2,4]triazolo[1,5-a]pyrimidine], the half-inhibitory concentration (IC50) worked out at 315 nM in test [1] and 759 nM in test [2].

As to `Cc1nc2nc(-c3ccc(CN4CC(c5nnc(-c6ccccn6)[nH]5)C4)cc3)c(-c3ccccc3)cn2n1` [Example 2.0, 2-methyl-6-phenyl-5-(4-{[3-(5-pyridin-2-yl-1,2,4-triazol-3-yl)azetidin-1-yl]methyl}phenyl)[1,2,4]triazolo[1,5-a]pyrimidine], the IC50 in test [1] stood at 23 nM; in test [2] it was 65 nM.

`N#Cc1ccc2nc(C3CCN(Cc4ccc(-c5nc6ccnn6cc5-c5ccccc5)cc4)CC3)[nH]c2c1` [Example 12.0, 2-{1-[4-(6-phenyl-pyrazolo[1,5-a]pyrimidin-5-yl)-benzyl]-piperidin-4-yl}-3H-benzimidazol-5-carbonitrile]: the half-inhibitory concentration (IC50) was determined as 39 nM in test [1] and 316 nM in test [2].

Consider `CNc1nc2nc(-c3ccc(CN4CC(c5n[nH]c(-c6ccccn6)n5)C4)cc3)c(-c3ccccc3)cn2n1` [Example 43.0, methyl-(6-phenyl-5-{4-[3-(5-pyridin-2-yl-1H-[1,2,4]triazol-3-yl)azetidin-1-ylmethyl]-phenyl}-[1,2,4]triazolo[1,5-a]pyrimidin-2-yl)-amine], for which, in test [1], the concentration for half-maximal inhibition (IC50) was determined as 63 nM.
